Assay results taken from BindingDB's records for doi:10.1016/s0960-894x(01)00323-7 (Kyoto University, 2001).

How the values were obtained:
[1] = Inhibitory concentration determined on an HIV infection model mediated by CXCR4
[2] = Effective concentration for 50% protection of HIV-induced cytopathogenicity in MT-4 cells on the MTT assay
[3] = as above; remark: listed apart in the source

IC50 [1] [nM]	EC50 [2] [nM]	EC50 [3] [nM]	Structure (SMILES)
10	3.3		NCCCC[C@@H]1NC(=O)[C@H](CCCN=C(N)N)NC(=O)[C@H](Cc2ccc(O)cc2)NC(=O)[C@@H](NC(=O)[C@@H](NC(=O)[C@H](CCCN=C(N)N)NC(=O)[C@@H](N)CCCN=C(N)N)c2ccc3ccccc3c2)CSSC[C@@H](C(=O)N[C@@H](CCCN=C(N)N)C(=O)O)NC(=O)[C@H](CCCNC(N)=O)NC(=O)[C@H](CCCN=C(N)N)NC(=O)[C@H](Cc2ccc(O)cc2)NC(=O)[C@@H]2CCCN2C(=O)[C@@H](CCCCN)NC1=O [Compound T140]
	7.8		NCCCC[C@@H]1NC(=O)[C@H](CCCN=C(N)N)NC(=O)[C@H](Cc2ccc(O)cc2)NC(=O)[C@@H](NC(=O)[C@@H](NC(=O)[C@H](CCCN=C(N)N)NC(=O)[C@@H](N)CCCN=C(N)N)c2ccc3ccccc3c2)CSSC[C@@H](C(=O)N[C@@H](CCCN=C(N)N)C(=O)O)NC(=O)[C@H](CCCNC(N)=O)NC(=O)[C@H](CCCNC(N)=O)NC(=O)[C@H](Cc2ccc(O)cc2)NC(=O)[C@@H]2CCCN2C(=O)[C@@H](CCCNC(N)=O)NC1=O [Derivative of T140 peptide]
	72		NCCCC[C@@H]1NC(=O)[C@H](CCCN=C(N)N)NC(=O)[C@H](Cc2ccc(O)cc2)NC(=O)[C@@H](NC(=O)[C@@H](NC(=O)[C@H](CCCN=C(N)N)NC(=O)[C@@H](N)CCCN=C(N)N)c2ccc3ccccc3c2)CSSC[C@@H](C(=O)N[C@@H](CCCN=C(N)N)C(N)=O)NC(=O)[C@H](CCCNC(N)=O)NC(=O)[C@H](CCCN=C(N)N)NC(=O)[C@H](Cc2ccc(O)cc2)NC(=O)[C@@H]2CCCN2C(=O)[C@@H](CCCCN)NC1=O [Derivative of T140 peptide]
24		4.6	NCCCC[C@@H]1NC(=O)[C@H](CCCN=C(N)N)NC(=O)[C@H](Cc2ccc(O)cc2)NC(=O)[C@@H](NC(=O)[C@@H](NC(=O)[C@H](CCCN=C(N)N)NC(=O)[C@@H](N)CCCN=C(N)N)c2ccc3ccccc3c2)CSSC[C@@H](C(=O)N[C@@H](CCCN=C(N)N)C(N)=O)NC(=O)[C@H](CCCNC(N)=O)NC(=O)[C@H](CCCN=C(N)N)NC(=O)[C@H](Cc2ccc(O)cc2)NC(=O)[C@@H]2CCCN2C(=O)[C@@H](CCCNC(N)=O)NC1=O [Derivative of T140 peptide]
	2.7		NCCCC[C@@H]1NC(=O)[C@H](CCCN=C(N)N)NC(=O)[C@H](Cc2ccc(O)cc2)NC(=O)[C@@H](NC(=O)[C@@H](NC(=O)[C@H](CCCN=C(N)N)NC(=O)[C@@H](N)CCCN=C(N)N)c2ccc3ccccc3c2)CSSC[C@@H](C(=O)N[C@@H](CCCN=C(N)N)C(N)=O)NC(=O)[C@H](CCCNC(N)=O)NC(=O)[C@H](CCCNC(N)=O)NC(=O)[C@H](Cc2ccc(O)cc2)NC(=O)[C@@H]2CCCN2C(=O)[C@@H](CCCNC(N)=O)NC1=O [Derivative of T140 peptide]
	36		NCCCC[C@@H]1NC(=O)[C@H](CCCN=C(N)N)NC(=O)[C@H](Cc2ccc(O)cc2)NC(=O)[C@@H](NC(=O)[C@@H](NC(=O)[C@H](CCCN=C(N)N)NC(=O)[C@@H](N)CCCNC(N)=O)c2ccc3ccccc3c2)CSSC[C@@H](C(=O)N[C@@H](CCCN=C(N)N)C(=O)O)NC(=O)[C@H](CCCNC(N)=O)NC(=O)[C@H](CCCN=C(N)N)NC(=O)[C@H](Cc2ccc(O)cc2)NC(=O)[C@@H]2CCCN2C(=O)[C@@H](CCCNC(N)=O)NC1=O [Derivative of T140 peptide]
	68		NCCCC[C@@H]1NC(=O)[C@H](CCCN=C(N)N)NC(=O)[C@H](Cc2ccc(O)cc2)NC(=O)[C@@H](NC(=O)[C@@H](NC(=O)[C@H](CCCN=C(N)N)NC(=O)[C@@H](N)CCCNC(N)=O)c2ccc3ccccc3c2)CSSC[C@@H](C(=O)N[C@@H](CCCN=C(N)N)C(=O)O)NC(=O)[C@H](CCCNC(N)=O)NC(=O)[C@H](CCCNC(N)=O)NC(=O)[C@H](Cc2ccc(O)cc2)NC(=O)[C@@H]2CCCN2C(=O)[C@@H](CCCCN)NC1=O [Derivative of T140 peptide]
	1.2		NCCCC[C@@H]1NC(=O)[C@H](CCCN=C(N)N)NC(=O)[C@H](Cc2ccc(O)cc2)NC(=O)[C@@H](NC(=O)[C@@H](NC(=O)[C@H](CCCN=C(N)N)NC(=O)[C@@H](N)CCCNC(N)=O)c2ccc3ccccc3c2)CSSC[C@@H](C(=O)N[C@@H](CCCN=C(N)N)C(N)=O)NC(=O)[C@H](CCCNC(N)=O)NC(=O)[C@H](CCCN=C(N)N)NC(=O)[C@H](Cc2ccc(O)cc2)NC(=O)[C@@H]2CCCN2C(=O)[C@@H](CCCNC(N)=O)NC1=O [Derivative of T140 peptide]
	40		NCCCC[C@@H]1NC(=O)[C@H](CCCN=C(N)N)NC(=O)[C@H](Cc2ccc(O)cc2)NC(=O)[C@@H](NC(=O)[C@@H](NC(=O)[C@H](CCCN=C(N)N)NC(=O)[C@@H](N)CCCNC(N)=O)c2ccc3ccccc3c2)CSSC[C@@H](C(=O)N[C@@H](CCCN=C(N)N)C(N)=O)NC(=O)[C@H](CCCNC(N)=O)NC(=O)[C@H](CCCNC(N)=O)NC(=O)[C@H](Cc2ccc(O)cc2)NC(=O)[C@@H]2CCCN2C(=O)[C@@H](CCCCN)NC1=O [Derivative of T140 peptide]
8		2.8	NCCCC[C@@H]1NC(=O)[C@H](CCCNC(N)=O)NC(=O)[C@H](Cc2ccc(O)cc2)NC(=O)[C@@H](NC(=O)[C@@H](NC(=O)[C@H](CCCN=C(N)N)NC(=O)[C@@H](N)CCCN=C(N)N)c2ccc3ccccc3c2)CSSC[C@@H](C(=O)N[C@@H](CCCN=C(N)N)C(=O)O)NC(=O)[C@H](CCCNC(N)=O)NC(=O)[C@H](CCCN=C(N)N)NC(=O)[C@H](Cc2ccc(O)cc2)NC(=O)[C@@H]2CCCN2C(=O)[C@@H](CCCCN)NC1=O [Derivative of T140 peptide]
51		0.5	NCCCC[C@@H]1NC(=O)[C@H](CCCNC(N)=O)NC(=O)[C@H](Cc2ccc(O)cc2)NC(=O)[C@@H](NC(=O)[C@@H](NC(=O)[C@H](CCCN=C(N)N)NC(=O)[C@@H](N)CCCN=C(N)N)c2ccc3ccccc3c2)CSSC[C@@H](C(=O)N[C@@H](CCCN=C(N)N)C(=O)O)NC(=O)[C@H](CCCNC(N)=O)NC(=O)[C@H](CCCN=C(N)N)NC(=O)[C@H](Cc2ccc(O)cc2)NC(=O)[C@@H]2CCCN2C(=O)[C@@H](CCCNC(N)=O)NC1=O [Derivative of T140 peptide]
	8.9		NCCCC[C@@H]1NC(=O)[C@H](CCCNC(N)=O)NC(=O)[C@H](Cc2ccc(O)cc2)NC(=O)[C@@H](NC(=O)[C@@H](NC(=O)[C@H](CCCN=C(N)N)NC(=O)[C@@H](N)CCCN=C(N)N)c2ccc3ccccc3c2)CSSC[C@@H](C(=O)N[C@@H](CCCN=C(N)N)C(=O)O)NC(=O)[C@H](CCCNC(N)=O)NC(=O)[C@H](CCCNC(N)=O)NC(=O)[C@H](Cc2ccc(O)cc2)NC(=O)[C@@H]2CCCN2C(=O)[C@@H](CCCCN)NC1=O [Derivative of T140 peptide]
12		0.6	NCCCC[C@@H]1NC(=O)[C@H](CCCNC(N)=O)NC(=O)[C@H](Cc2ccc(O)cc2)NC(=O)[C@@H](NC(=O)[C@@H](NC(=O)[C@H](CCCN=C(N)N)NC(=O)[C@@H](N)CCCN=C(N)N)c2ccc3ccccc3c2)CSSC[C@@H](C(=O)N[C@@H](CCCN=C(N)N)C(N)=O)NC(=O)[C@H](CCCNC(N)=O)NC(=O)[C@H](CCCN=C(N)N)NC(=O)[C@H](Cc2ccc(O)cc2)NC(=O)[C@@H]2CCCN2C(=O)[C@@H](CCCCN)NC1=O [Derivative of T140 peptide]
19		0.4	NCCCC[C@@H]1NC(=O)[C@H](CCCNC(N)=O)NC(=O)[C@H](Cc2ccc(O)cc2)NC(=O)[C@@H](NC(=O)[C@@H](NC(=O)[C@H](CCCN=C(N)N)NC(=O)[C@@H](N)CCCN=C(N)N)c2ccc3ccccc3c2)CSSC[C@@H](C(=O)N[C@@H](CCCN=C(N)N)C(N)=O)NC(=O)[C@H](CCCNC(N)=O)NC(=O)[C@H](CCCN=C(N)N)NC(=O)[C@H](Cc2ccc(O)cc2)NC(=O)[C@@H]2CCCN2C(=O)[C@@H](CCCNC(N)=O)NC1=O [Derivative of T140 peptide]
	6.8		NCCCC[C@@H]1NC(=O)[C@H](CCCNC(N)=O)NC(=O)[C@H](Cc2ccc(O)cc2)NC(=O)[C@@H](NC(=O)[C@@H](NC(=O)[C@H](CCCN=C(N)N)NC(=O)[C@@H](N)CCCN=C(N)N)c2ccc3ccccc3c2)CSSC[C@@H](C(=O)N[C@@H](CCCN=C(N)N)C(N)=O)NC(=O)[C@H](CCCNC(N)=O)NC(=O)[C@H](CCCNC(N)=O)NC(=O)[C@H](Cc2ccc(O)cc2)NC(=O)[C@@H]2CCCN2C(=O)[C@@H](CCCCN)NC1=O [Derivative of T140 peptide]
	37		NCCCC[C@@H]1NC(=O)[C@H](CCCNC(N)=O)NC(=O)[C@H](Cc2ccc(O)cc2)NC(=O)[C@@H](NC(=O)[C@@H](NC(=O)[C@H](CCCN=C(N)N)NC(=O)[C@@H](N)CCCNC(N)=O)c2ccc3ccccc3c2)CSSC[C@@H](C(=O)N[C@@H](CCCN=C(N)N)C(=O)O)NC(=O)[C@H](CCCNC(N)=O)NC(=O)[C@H](CCCN=C(N)N)NC(=O)[C@H](Cc2ccc(O)cc2)NC(=O)[C@@H]2CCCN2C(=O)[C@@H](CCCCN)NC1=O [Derivative of T140 peptide]
	6.6		NCCCC[C@@H]1NC(=O)[C@H](CCCNC(N)=O)NC(=O)[C@H](Cc2ccc(O)cc2)NC(=O)[C@@H](NC(=O)[C@H](Cc2ccc3ccccc3c2)NC(=O)[C@H](CCCN=C(N)N)NC(=O)[C@@H](N)CCCNC(N)=O)CSSC[C@@H](C(=O)N[C@@H](CCCN=C(N)N)C(N)=O)NC(=O)[C@H](CCCNC(N)=O)NC(=O)[C@H](CCCN=C(N)N)NC(=O)[C@H](Cc2ccc(O)cc2)NC(=O)[C@@H]2CCCN2C(=O)[C@@H](CCCCN)NC1=O [Derivative of T140 peptide]
	88		Nc1ccn([C@H]2CC[C@@H](CO)O2)c(=O)n1 [Dideoxycytidine]
23		4	NCCCC[C@@H]1NC(=O)[C@H](CCCN=C(N)N)NC(=O)[C@H](Cc2ccc(O)cc2)NC(=O)[C@@H](NC(=O)[C@@H](NC(=O)[C@H](CCCN=C(N)N)NC(=O)[C@@H](N)CCCN=C(N)N)c2ccc3ccccc3c2)CSSC[C@@H](C(=O)N[C@@H](CCCN=C(N)N)C(=O)O)NC(=O)[C@H](CCCNC(N)=O)NC(=O)[C@H](CCCN=C(N)N)NC(=O)[C@H](Cc2ccc(O)cc2)NC(=O)[C@@H]2CCCN2C(=O)[C@@H](CCCNC(N)=O)NC1=O [T140]
